SMILES strings stand for the structures.

One test deals with monocistronic NK5.1 HCV replicon in Huh7 cells. As to the kind of experiment: HCV replicon assay, monocistronic replicon cell line. It is filed as cell-based, hepatitis C virus. Conditions: Hepatitis C virus, Huh-7, 72 h, read-out: Mono EC50 Median. From the text: HCV Replicon Assays (Replicon EC50 (μM))
HCV replication can be measured by a replicon assay such as described by Vrolijk et al, J. Virol. Methods 110:201(2003), which is hereby incorporated in its entirety by reference. The method was implemented as follows.
Monocistronic Replicon Cell Line:
Human hepatocyte Huh7 cells containing the monocistronic NK5.1 replicon were obtained from Ralf Bartenschlager at the University of Mainz, Germany. These cells were maintained under hygromycin selection and passaged when 80-90% confluent.
This cell line contains an autonomously replicating RNA element (replicon) incorporating the non-structural HCV elements necessary for replication, and upon which the survival of the replicon in the cell depends. This replicon contains a single internal ribosome entry site (HCV IRES). Inhibition of any of the critical HCV finctions by a compound leads to loss of the replicon as measured by HCV replicon RNA copy number reduction. The amount of HCV RNA present following a standard incubation with a compound is a measure of the anti-HCV activity of the compound. The assay was conducted by preparing sufficient 96-well plates containing these cells, wherein cells are seeded at 6000 cells/well in a 96-well plate, in 200 μl of final media volume. Cells were then incubated for 24 hours at 37 C., 5% CO2, and 95% humidity before compound was added. Six point half-log concentration response assays were conducted to determine potency/EC50 of Formula I compounds to inhibit HCV replicon replication. The final percent DMSO acceptable in this assay system is 0.6%. Compounds were diluted in media in an appropriate format and 5 μl of each drug dilution is added to each well. Cells were then incubated with compounds for 3 days at 37 C., 5% CO2, and 95% humidity. Following the three day incubation period, plates were washed twice with phosphate buffered saline to remove media and cells were lysed with Qiagen extraction buffer. RNA was extracted and isolated with the Qiagen RNAeasy kit according to the manufacturer's protocol (Qiagen). TaqMan One-Step RT-PCR was used in conjunction with an ABI 7700 Sequence Detector (Applied Biosystems) for the quantitation and analysis of HCV replicon RNA copy number. A GAPDH probe was used for internal normalization. The ratio of HCV RNA to cellular GAPDH RNA was determined and compared to the DMSO-only treated control, and the ratio of HCV RNA/GAPDH RNA was used for an EC50 determination and as a measure of specificity for inhibition of the HCV replicon.
By EC50 is commonly meant the concentration needed to bring the measured effect to its halfway point. Take `O=[N+]([O-])c1ccc(F)c(-c2nc(-c3ncccc3[N+](=O)[O-])no2)c1` [Compound 168, 2-[5-(2-Fluoro-5-nitro-phenyl)-[1,2,4]oxadiazol-3-yl]-3-nitro-pyridine]: the EC50 was determined as 4.6 µM.

Staying with this test, now noted: Hepatitis C virus, Huh-7, 72 h; Table 1; monocistronic replicon in Huh7 cells, 3 days incubation, HCV RNA/GAPDH RNA by TaqMan RT-PCR; read-out: Mono EC50 Median.
As to `CCCNC(=O)c1cc(-c2ccc(OC)cc2)nn1-c1ncccc1C(F)(F)F` [Compound 59, 5-(4-Methoxy-phenyl)-2-(3-trifluoromethyl-pyridin-2-yl)-2H-pyrazole-3-carboxylic acid propylamide], the half-maximal effective concentration (EC50) is more than 32 µM.

Take `c1ccc2c(-c3nc(-c4nccc5ccccc45)no3)cccc2c1` [Compound 200, 1-(5-Naphthalen-1-yl-[1,2,4]oxadiazol-3-yl)-isoquinoline]: the EC50 was more than 32 µM. For the molecule `Oc1c(Cl)cc(Cl)cc1-c1cc(-c2ccccn2)on1` [Compound 127, 2,4-Dichloro-6-(5-pyridin-2-yl-isoxazol-3-yl)-phenol], the EC50 amounted to 7.4 µM. Same read-out and setting: then `COc1ccc(OCc2ccccc2)c(-c2ccnn2-c2ncccc2C(F)(F)F)c1` [Compound 81, 2-[5-(2-Benzyloxy-5-methoxy-phenyl)-pyrazol-1-yl]-3-trifluoromethyl-pyridine], with 6.2 µM; and `COc1cccc(-c2nc(-c3ncccc3C(F)(F)F)no2)c1` [Compound 138, 2-[5-(3-Methoxy-phenyl)-[1,2,4]oxadiazol-3-yl]-3-trifluoromethyl-pyridine], with more than 19 µM. The same measure, in the same setting: then `COc1ccc(O)c(-c2ccnn2-c2ccccn2)c1` [Compound 85, 4-Methoxy-2-(2-pyridin-2-yl-2H-pyrazol-3-yl)-phenol], with more than 32 µM; and `COc1ccc(-c2nc(-c3ncccc3C)no2)c(O)c1` [Compound 175, 5-Methoxy-2-[3-(3-methyl-pyridin-2-yl)-[1,2,4]oxadiazol-5-yl]-phenol], with 0.5 µM.

For the molecule `COc1ccc(OC)c(-c2nc(-c3nccc4ccccc34)no2)c1` [Compound 193, 1-[5-(2,5-Dimethoxy-phenyl)-[1,2,4]oxadiazol-3-yl]-isoquinoline], the EC50 was 1.3 µM.

As to `Oc1ccccc1-c1nc(-c2ccc(C(F)(F)F)cn2)no1` [Compound 223], the EC50 came out at 19 µM. In the case of `COc1ccc(-c2nc(-c3nccc4ccccc34)no2)c(O)c1` [Compound 205, 2-(3-Isoquinolin-1-yl-[1,2,4]oxadiazol-5-yl)-5-methoxy-phenol], the EC50 is 1 µM.

As for `COc1ccc(O)c(-c2ccnn2Cc2ccccn2)c1` [Compound 115, 4-Methoxy-2-(2-pyridin-2-ylmethyl-2H-pyrazol-3-yl)-phenol], the EC50 was more than 32 µM. Same read-out and setting: the value for `Cc1cc(-c2ccccc2O)nn1-c1ccccc1` [Compound 11, 2-(5-Methyl-1-phenyl-1H-pyrazol-3-yl)-phenol] was 9 µM.

Staying with this test, now noted: Hepatitis C virus, Huh-7, 72 h; table T3 (compounds 471-640); monocistronic replicon in Huh7 cells, 3 days incubation, HCV RNA/GAPDH RNA by TaqMan RT-PCR; read-out: Mono EC50 Median.
For the molecule `Fc1cccc(Cl)c1-c1nc(-c2cnccc2C(F)(F)F)n[nH]1` [Compound 479, 3-[5-(2-Fluoro-6-chloro-phenyl)-1H-[1,2,4]triazol-3-yl]-4-trifluoromethyl-pyridine], the EC50 was more than 32 µM. Regarding `COc1ccc(-c2nc(-c3ccc(C(F)(F)F)cn3)n[nH]2)c(O)c1` [Compound 517, 5-Methoxy-2-[5-(5-trifluoromethyl-pyridin-2-yl)-2H-[1,2,4]triazol-3-yl]-phenol], the concentration for a half-maximal effect (EC50) was more than 19 µM. Regarding `Oc1ccc(O)c(-c2nc(-c3ncccc3Br)n[nH]2)c1` [Compound 499, 2-[5-(3-Bromo-pyridin-2-yl)-2H-[1,2,4]triazol-3-yl]-4-Hydroxy-phenol], the EC50 is 6.2 µM.

For the molecule `COc1ccc(-c2nc(-c3ncccc3C)nn2C)c(O)c1` [Compound 613, 5-Methoxy-2-[2-methyl-5-(3-methyl-pyridin-2-yl)-2H-[1,2,4]triazol-3-yl]-phenol], the EC50 came out at 6.4 µM.

On to `FC(F)(F)c1ccncc1-c1n[nH]c(-c2ccccc2Br)n1` [Compound 473, 3-[5-(2-Bromo-phenyl)-1H-[1,2,4]triazol-3-yl]-4-trifluoromethyl-pyridine], for which the EC50 is more than 32 µM. The same measure, in the same setting: the value for `O=[N+]([O-])c1ccc(O)c(-c2nc(-c3ncccn3)n[nH]2)c1` [Compound 560, 4-Nitro-2-(5-pyrimidin-2-yl-2H-[1,2,4]triazol-3-yl)-phenol] was more than 32 µM; that for `O=[N+]([O-])c1cccnc1-c1n[nH]c(-c2c(O)ccc3ccccc23)n1` [Compound 558, 1-[5-(3-Nitro-pyridin-2-yl)-2H-[1,2,4]triazol-3-yl]-naphthalen-2-ol] was more than 3.2 µM; that for `Oc1ccc(F)cc1-c1nc(-c2ccc(C(F)(F)F)cn2)n[nH]1` [Compound 509, 4-Fluoro-2-[5-(5-trifluoromethyl-pyridin-2-yl)-2H-[1,2,4]triazol-3-yl]-phenol] was more than 19 µM.

On to `Cc1cccnc1-c1nc(-c2ccccc2O)n(C)n1` [Compound 614, 2-[2-methyl-5-(3-methyl-pyridin-2-yl)-2H-[1,2,4]triazol-3-yl]-phenol], for which the EC50 came out at 6.9 µM. Turning to `Cc1cccnc1-c1nc(-c2cc(Br)ccc2O)n(C)n1` [Compound 612, 4-Bromo-2-[2-methyl-5-(3-methyl-pyridin-2-yl)-2H-[1,2,4]triazol-3-yl]-phenol], the EC50 was found to be 2.4 µM. On the same count and under the same terms, then `Oc1ccc(O)c(-c2nc(-c3ncccn3)n[nH]2)c1` [Compound 572, 4-Hydroxy-2-(5-pyrimidin-2-yl-2H-[1,2,4]triazol-3-yl)-phenol], with more than 32 µM. In the case of `CC(=O)Nc1ccc(-c2n[nH]c(-c3cc(Br)ccc3O)n2)nc1` [Compound 593, N-{6-[5-(5-Bromo-2-hydroxy-phenyl)-1H-[1,2,4]triazol-3-yl]-pyridin-3-yl}-acetamide], the EC50 amounted to 48.7 µM. The same measure, in the same setting: the value for `Oc1ccc2ccccc2c1-c1nc(-c2ccccn2)n[nH]1` [Compound 482, 1-(5-Pyridin-2-yl-2H-[1,2,4]triazol-3-yl)-naphthalen-2-ol] was more than 19 µM.

Still in this test, the particulars now being: Hepatitis C virus, Huh-7; monocistronic NK5.1 HCV replicon in Huh7 cells; median value; read-out: Mono EC50 Median.
Take `Cc1ccc(O)c(-c2nc(-c3nccc4ccccc34)n[nH]2)c1` [Compound 375, 4-Methyl-2-(5-isoquinolin-1-yl-2H-[1,2,4]triazol-3-yl)-phenol]: the EC50 is more than 19 µM. Same read-out and setting: the value for `Oc1ccc(F)cc1-c1nc(-c2ccccn2)n[nH]1` [Compound 353, 4-Fluoro-2-(5-pyridin-2-yl-2H-[1,2,4]triazol-3-yl)-phenol] was 7.1 µM; that for `Cc1ccc(O)c(-c2nc(-c3cnccc3C(F)(F)F)n[nH]2)c1` [Compound 420, 4-Methyl-2-[5-(4-trifluoromethyl-pyridin-3-yl)-2H-[1,2,4]triazol-3-yl]-phenol] was 9.7 µM; that for `Oc1ccc(Cl)cc1-c1nc(-c2cnccc2C(F)(F)F)n[nH]1` [Compound 415, 4-Chloro-2-[5-(4-trifluoromethyl-pyridin-3-yl)-2H-[1,2,4]triazol-3-yl]-phenol] was 14 µM.

For `Oc1ccc2ccccc2c1-c1nnc(-c2ncccc2C(F)(F)F)o1` [Compound 338, 1-[5-(3-Trifluoromethyl-pyridin-2-yl)-[1,3,4]oxadiazol-2-yl]-naphthalen-2-ol], the EC50 is more than 19 µM. In the case of `Cc1ccccc1-c1nnc(-c2ccccc2)o1` [Compound 312, 2-Phenyl-5-o-tolyl-[1,3,4]oxadiazole], the EC50 was more than 32 µM.

Turning to `COc1cccc(-c2nc(-c3nccc4ccccc34)n[nH]2)c1` [Compound 382], the EC50 is more than 19 µM. `Cc1cccnc1-c1n[nH]c(-c2ccccc2O)n1` [Compound 452, 2-(5-(3-methyl-pyridin-2-yl)-2H-[1,2,4]triazol-3-yl)-phenol]: the EC50 turned out to be 31 µM. On the same count and under the same terms, the value for `Fc1ccccc1-c1nc(-c2ccccn2)n[nH]1` [Compound 434, 2-[5-(2-Fluoro-phenyl)-1H-[1,2,4]triazol-3-yl]-pyridine] was more than 19 µM; that for `Oc1ccccc1-c1nc(-c2ccc(C(F)(F)F)cn2)no1` [Compound 223] was 19 µM.

For `Cc1ccccc1-c1nnc(-c2ccccc2F)o1` [Compound 313, 2-(2-Fluoro-phenyl)-5-o-tolyl-[1,3,4]oxadiazole], the EC50 was more than 32 µM.

Take `COc1ccc(O)c(-c2nc(-c3ccoc3)no2)c1` [Compound 283, 2-(3-Furan-3-yl-[1,2,4]oxadiazol-5-yl)-4-methoxy-phenol]: the EC50 is 15 µM. Still for that read-out and setting: the value for `Cc1cccnc1-c1noc(-c2cc(O)ccc2OCc2ccccc2)n1` [Compound 267, 4-Benzyloxy-3-[3-(3-methyl-pyridin-2-yl)-[1,2,4]oxadiazol-5-yl]-phenol] was 15.9 µM.

Values taken from US20050075375A1 (priority 2003, published 2005).
